Measured values taken from US20150258101A1 (Proximagen Limited, priority 2014, published 2015).
Where a name gives a salt, the structure may show the parent alone.

molecular target: T1, purified recombinantly expressed human SSAO (Homo sapiens, UniProt Q16853); test: SSAO enzyme inhibition assay (benzylamine substrate; hydrogen peroxide/HRP-coupled or 14C aldehyde detection); format: biochemical; settings: SSAO inhibitory activity, RT
T1 construct: made in house
T1 sequence (Q16853 1-763): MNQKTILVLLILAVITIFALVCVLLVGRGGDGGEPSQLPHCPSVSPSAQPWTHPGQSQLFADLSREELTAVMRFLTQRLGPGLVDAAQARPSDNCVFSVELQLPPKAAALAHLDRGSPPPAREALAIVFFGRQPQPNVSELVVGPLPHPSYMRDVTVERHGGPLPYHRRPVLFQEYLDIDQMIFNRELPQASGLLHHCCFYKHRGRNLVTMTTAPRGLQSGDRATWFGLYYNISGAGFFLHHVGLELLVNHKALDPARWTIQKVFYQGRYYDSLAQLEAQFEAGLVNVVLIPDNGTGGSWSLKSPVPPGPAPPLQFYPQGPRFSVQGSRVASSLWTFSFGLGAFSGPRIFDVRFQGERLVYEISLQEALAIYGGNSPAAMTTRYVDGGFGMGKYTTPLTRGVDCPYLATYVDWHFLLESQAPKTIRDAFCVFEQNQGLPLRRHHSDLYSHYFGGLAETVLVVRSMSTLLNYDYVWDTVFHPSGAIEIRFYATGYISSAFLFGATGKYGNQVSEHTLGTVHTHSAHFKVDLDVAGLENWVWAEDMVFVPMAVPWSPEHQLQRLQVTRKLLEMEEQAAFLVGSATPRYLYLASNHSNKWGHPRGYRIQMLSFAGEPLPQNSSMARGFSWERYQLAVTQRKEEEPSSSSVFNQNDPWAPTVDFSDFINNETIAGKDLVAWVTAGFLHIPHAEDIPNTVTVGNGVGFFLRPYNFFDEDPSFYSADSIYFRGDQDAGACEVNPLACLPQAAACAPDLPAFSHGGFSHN
Procedure: All primary assays were performed at RT. with purified recombinantly expressed human SSAO. Enzyme was prepared essentially as described in Öhman et al. (Protein Expression and Purification 46 (2006) 321-331). In addition, secondary- and selectivity assays were performed using SSAO prepared from various tissues or purified rat recombinant SSAO. The enzyme activity was assayed with benzylamine as substrate by measuring either benzaldehyde production, using ^14C-labeled substrate, or by utilizing the production of hydrogen peroxide in a horseradish peroxidase (HRP) coupled reaction. Briefly, test compounds were dissolved in dimethyl sulfoxide (DMSO) to a concentration of 10 mM. Dose-response measurements were assayed by either creating 1:10 serial dilutions in DMSO to produce a 7 point curve or by making 1:3 serial dilutions in DMSO to produce 11 point curves.
In a horseradish peroxidase (HRP) coupled reaction, hydrogen peroxide oxidation of 10-acetyl-3,7-dihydroxyphenoxazine produced resorufin, which is a highly fluorescent compound (Zhout and Panchuk-Voloshina. Analytical Biochemistry 253 (1997) 169-174; Amplex® Red Hydrogen Peroxide/peroxidase Assay kit, Invitrogen A22188). Enzyme and compounds in 50 mM sodium phosphate, pH 7.4 were set to pre-incubate in flat-bottomed microtiter plates for approximately 15 min before initiating the reaction by addition of a mixture of HRP, benzylamine and Amplex reagent. Benzylamine concentration was fixed at a concentration corresponding to the Michaelis constant, determined using standard procedures. Fluorescence intensity was then measured at several time points during 1-2 h, exciting at 544 nm and reading the emission at 590 nm. For the human SSAO assay final concentrations of the reagents in the assay wells were: SSAO enzyme 1 ug/ml, benzylamine 100 uM, Amplex reagent 20 uM, HRP 0.1 U/mL and varying concentrations of test compound. The inhibition was measured as % decrease of the signal compared to a control without inhibitor (only diluted DMSO). The background signal from a sample containing no SSAO enzyme was subtracted from all data points. Data was fitted to a four parameter logistic model and IC50 values were calculated using the Graph Pad Prism 4 or XLfit 4 programs.
SSAO activity was assayed using 14C-labeled benzylamine and analysed by measuring radioactive benzaldehyde. In a white 96-well optiplate (Packard), 20 uL of diluted test compound was pre-incubated at room temperature with 20 uL SSAO enzyme for approximately 15 min with continuous agitation. All dilutions were made with PBS. The reaction was initiated by adding 20 uL of the benzylamine substrate solution containing [7-14C] Benzylamine hydrochloride (CFA589, GE Healthcare). The plate was incubated for 1 h as above after which the reaction was stopped by acidification (10 uL 1M aq HCl). Then 90 uL Micro Scint-E solution (Perkin-Elmer) was added to each well and the plate was continuously mixed for 15 min. Phase separation occurred instantly and activity was read in a Topcount scintillation counter (Perkin-Elmer). In the final reaction well, the human recombinant SSAO concentration was 10 ug/ml. In order to optimize sensitivity, the substrate concentration was decreased as compared to the HRP coupled assay in order to get a higher fraction of radioactive product. In the human SSAO assay, benzylamine concentration was 40 uM (0.2 uCi/mL). Data was analysed as above.

Row | IC50 [nM] | Compound
1 | < 50 | Brc1ccc(-n2c(-c3cnc(N4CCOCC4)nc3)cc3ccncc32)cc1 [Example 133, 4-{5-[1-(4-Bromophenyl)-1H-pyrrolo[2,3-c]pyridin-2-yl]pyrimidin-2-yl}morpholine]
2 | 50 to 200 | Cc1cc(F)ccc1-n1c(-c2ccc(N3CCOCC3)nc2)nc2ccncc21 [Example 62, 4-{5-[3-(4-Fluoro-2-methylphenyl)-3H-imidazo[4,5-c]pyridin-2-yl]pyridin-2-yl}morpholine]
3 | 50 to 200 | FC(F)(F)c1ccc(-n2c(-c3ccc(N4CCOCC4)nc3)nc3ccncc32)cc1 [Example 66, 4-(5-{3-[4-(Trifluoromethyl)phenyl]-3H-imidazo[4,5-c]pyridin-2-yl}pyridin-2-yl)morpholine]
4 | < 50 | Fc1cncc(-c2cc3ccncc3n2-c2ccc(Cl)cc2)c1 [Example 148, 3-[1-(4-Chlorophenyl)-1H-pyrrolo[2,3-c]pyridin-2-yl]-5-fluoropyridine]
5 | 50 to 200 | COc1nc(N2CCOCC2)ccc1-c1nc2ccncc2n1-c1ccc(F)cc1 [Example 28, 4-{5-[3-(4-Fluorophenyl)-3H-imidazo[4,5-c]pyridin-2-yl]-6-methoxypyridin-2-yl} morpholine]
6 | 200 to 1200 | Cc1ccc(-n2c(-c3cnc(N4CCOCC4)nc3)nc3ccncc32)cn1 [Example 58, 4-{5-[3-(6-Methylpyridin-3-yl)-3H-imidazo[4,5-c]pyridin-2-yl]pyrimidin-2-yl}morpholine]
7 | 50 to 200 | CCOCCNc1ncc(-c2nc3ccncc3n2-c2ccc(F)cc2)cn1 [Example 42, N-(2-Ethoxyethyl)-5-[3-(4-fluorophenyl)-3H-imidazo [4,5-c]pyridin-2-yl]pyrimidin-2-amine]
8 | 200 to 1200 | CN(C)c1ncc(-c2nc3ccncc3n2-c2ccc(Cl)cc2)cn1 [Example 72, 5-[3-(4-Chlorophenyl)-3H-imidazo[4,5-c]pyridin-2-yl]-N,N-dimethylpyrimidin-2-amine]
9 | < 50 | CN(C)c1ncc(-c2nc3ccncc3n2-c2ccc(Cl)cc2F)cn1 [Example 84, 5-[3-(4-Chloro-2-fluorophenyl)-3H-imidazo[4,5-c]pyridin-2-yl]-N,N-dimethylpyrimidin-2-amine]
10 | 200 to 1200 | Cn1ccc(-c2nc3ccncc3n2-c2ccc(F)cc2)cc1=O [Example 114, 4-[3-(4-Fluorophenyl)-3H-imidazo[4,5-c]pyridin-2-yl]-1-methyl-1,2-dihydropyridin-2-one]
11 | < 50 | Cc1cc(N2CCOCC2)ncc1-c1cc2ccncc2n1-c1ccc(Cl)cc1 [Example 129, 4-{5-[1-(4-Chlorophenyl)-1H-pyrrolo[2,3-c]pyridin-2-yl]-4-methylpyridin-2-yl}morpholine; bis(trifluoroacetic acid)]
12 | < 50 | Clc1ccc(-n2c(-c3ccc(Cn4ccnc4)cc3)nc3ccncc32)cc1 [Example 48, 1-({4-[3-(4-Chlorophenyl)-3H-imidazo[4,5-c]pyridin-2-yl]phenyl}methyl)-1H-imidazole]
13 | < 50 | Clc1ccc(-n2c(-c3cnccn3)cc3ccncc32)cc1 [Example 124, 2-[1-(4-Chlorophenyl)-1H-pyrrolo[2,3-c]pyridin-2-yl]pyrazine]
14 | 50 to 200 | Cc1ccc(-n2c(-c3cnc(NC4CCOCC4)nc3)nc3ccncc32)cc1 [Example 119, 5-[3-(4-Methylphenyl)-3H-imidazo[4,5-c]pyridin-2-yl]-N-(oxan-4-yl)pyrimidin-2-amine; bis(trifluoroacetic acid)]
15 | 50 to 200 | Cc1ccc(-n2c(-c3cnc(N4C[C@@H](C)O[C@@H](C)C4)nc3)nc3ccncc32)nc1 [Example 36, (2R,6S)-2,6-Dimethyl-4-{5-[3-(5-methylpyridin-2-yl)-3H-imidazo[4,5-c]pyridin-2-yl]pyrimidin-2-yl}morpholine]
16 | < 50 | Cc1nc(C)c(-c2cc3ccncc3n2-c2ccc(Cl)cc2)[nH]1 [Example 126, 5-[1-(4-Chlorophenyl)-1H-pyrrolo[2,3-c]pyridin-2-yl]-2,4-dimethyl-1H-imidazole]
17 | 50 to 200 | O=c1cc(-c2nc3ccncc3n2-c2ccc(Cl)cc2F)cc[nH]1 [Example 34, 4-[3-(4-Chloro-2-fluorophenyl)-3H-imidazo[4,5-c]pyridin-2-yl]-1,2-dihydropyridin-2-one]
18 | 50 to 200 | Clc1ccc(-n2c(-c3ccc(-n4cccn4)nc3)cc3ccncc32)cc1 [Example 151, 5-[1-(4-Chlorophenyl)-1H-pyrrolo[2,3-c]pyridin-2-yl]-2-(1H-pyrazol-1-yl)pyridine; bis(trifluoroacetic acid)]
19 | 200 to 1200 | O=c1cc(-c2cc3ccncc3n2-c2ccccc2)ccn1C1CC1 [Example 155, 1-Cyclopropyl-4-{1-phenyl-1H-pyrrolo[2,3-c]pyridin-2-yl}-1,2-dihydropyridin-2-one]
20 | 200 to 1200 | Cc1cc(N2CCOCC2)nc(C)c1-c1nc2ccncc2n1-c1ccc(F)cc1 [Example 29, 4-{5-[3-(4-Fluorophenyl)-3H-imidazo[4,5-c]pyridin-2-yl]-4,6-dimethylpyridin-2-yl} morpholine]
21 | 50 to 200 | Clc1ccc(-n2c(-c3cnc(N4CCOCC4)cn3)nc3ccncc32)cc1 [Example 5, 4-{5-[3-(4-Chlorophenyl)-3H-imidazo[4,5-c]pyridin-2-yl]pyrazin-2-yl}morpholine]
22 | < 50 | Cn1nccc1-c1cc2ccncc2n1-c1ccc(Cl)cc1 [Example 134, 5-[1-(4-Chlorophenyl)-1H-pyrrolo[2,3-c]pyridin-2-yl]-1-methyl-1H-pyrazole]
23 | 50 to 200 | Cc1cc(NCC2CC2)ncc1-c1nc2ccncc2n1-c1ccc(F)cc1 [Example 101, N-(Cyclopropylmethyl)-5-[3-(4-fluorophenyl)-3H-imidazo[4,5-c]pyridin-2-yl]-4-methylpyridin-2-amine]
24 | < 50 | Cc1ccc(-n2c(-c3cnc(N4CCOCC4)nc3)nc3ccncc32)nc1 [Example 79, 4-{5-[3-(5-Methylpyridin-2-yl)-3H-imidazo[4,5-c]pyridin-2-yl]pyrimidin-2-yl}morpholine]
25 | < 50 | NC(=O)N1CCN(c2ccc(-c3nc4ccncc4n3-c3ccc(Cl)cc3)cn2)CC1 [Example 90, 4-{5-[3-(4-Chlorophenyl)-3H-imidazo[4,5-c]pyridin-2-yl]pyridin-2-yl}piperazine-1-carboxamide dihydrochloride]
26 | < 50 | Cc1ccc(-n2c(-c3cnc(NCCOC(C)C)nc3)nc3ccncc32)cc1 [Example 39, 5-[3-(4-Methylphenyl)-3H-imidazo[4,5-c]pyridin-2-yl]-N-[2-(propan-2-yloxy)ethyl] pyrimidin-2-amine]
27 | < 50 | Cn1ccc(-c2nc3ccncc3n2-c2ccc(Cl)cc2)cc1=O [Example 32, 4-[3-(4-Chlorophenyl)-3H-imidazo[4,5-c]pyridin-2-yl]-1-methyl-1,2-dihydropyridin-2-one]
28 | < 50 | Fc1ccccc1-n1c(-c2ccc(N3CCOCC3)nc2)nc2ccncc21 [Example 68, 4-{5-[3-(2-Fluorophenyl)-3H-imidazo[4,5-c]pyridin-2-yl]pyridin-2-yl}morpholine]
